From ChEMBL document CHEMBL1201862, “PubChem BioAssay data set” (2004)
Active and inactive are the calls of the source.

Assays:
[1] = test system: HEK293; test: inhibition of NOD1-driven NF-kB reporter – cell-based, luminescence, uHTS, primary screen (AID 1578); format: functional; settings: Homo sapiens
[2] = test system: HEK293; test: cells; format: functional, cell-based; settings: Homo sapiens
[3] = test system: HEK293; test: cells; format: functional, cell-based; settings: Homo sapiens; remark: listed apart in the source
[4] = test system: HEK293; test: NOD2 signaling inhibitors in MDP-stimulated cells, cell-based, uHTS, luminescence (AID 2001); format: functional; settings: Homo sapiens
[5] = target: T1, Mannose-6-phosphate isomerase (Homo sapiens, UniProt P34949); test: phosphomannose isomerase inhibition – biochemical, fluorescence intensity, confirmation (AID 1535)
T1 sequence (P34949 whole entry): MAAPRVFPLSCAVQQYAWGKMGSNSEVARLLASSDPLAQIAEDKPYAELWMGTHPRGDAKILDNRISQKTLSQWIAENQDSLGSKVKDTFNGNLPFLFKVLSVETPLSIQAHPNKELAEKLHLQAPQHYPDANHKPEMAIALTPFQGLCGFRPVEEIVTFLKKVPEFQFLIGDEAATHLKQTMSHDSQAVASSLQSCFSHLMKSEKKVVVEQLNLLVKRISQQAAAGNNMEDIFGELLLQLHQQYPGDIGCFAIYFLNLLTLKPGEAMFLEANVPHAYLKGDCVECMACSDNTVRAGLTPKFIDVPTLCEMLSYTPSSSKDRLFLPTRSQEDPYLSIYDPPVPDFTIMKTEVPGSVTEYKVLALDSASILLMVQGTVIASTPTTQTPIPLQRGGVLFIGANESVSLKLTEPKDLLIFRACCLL

[6] = target: Phosphomannomutase 2 (Homo sapiens, UniProt O15305); test: Counter screen SAR assay for PMM2 inhibitors via a fluorescence intensity assay. [Related pubchem assays (depositor defined):AID1545, AID1574]
[7] = target: Phosphoethanolamine/phosphocholine phosphatase (Homo sapiens, UniProt Q8TCT1); test: SAR assay for compounds that inhibit PHOSPHO1. [Related pubchem assays (depositor defined):AID1545, AID1565, AID1574]
[8] = target: T2, Alkaline phosphatase, tissue-nonspecific isozyme (Homo sapiens, UniProt P05186); test: potency against alkaline phosphatase TNAP – biochemical, luminescent, dose response, SAR follow-up (AID 1056)
T2 sequence (P05186 whole entry): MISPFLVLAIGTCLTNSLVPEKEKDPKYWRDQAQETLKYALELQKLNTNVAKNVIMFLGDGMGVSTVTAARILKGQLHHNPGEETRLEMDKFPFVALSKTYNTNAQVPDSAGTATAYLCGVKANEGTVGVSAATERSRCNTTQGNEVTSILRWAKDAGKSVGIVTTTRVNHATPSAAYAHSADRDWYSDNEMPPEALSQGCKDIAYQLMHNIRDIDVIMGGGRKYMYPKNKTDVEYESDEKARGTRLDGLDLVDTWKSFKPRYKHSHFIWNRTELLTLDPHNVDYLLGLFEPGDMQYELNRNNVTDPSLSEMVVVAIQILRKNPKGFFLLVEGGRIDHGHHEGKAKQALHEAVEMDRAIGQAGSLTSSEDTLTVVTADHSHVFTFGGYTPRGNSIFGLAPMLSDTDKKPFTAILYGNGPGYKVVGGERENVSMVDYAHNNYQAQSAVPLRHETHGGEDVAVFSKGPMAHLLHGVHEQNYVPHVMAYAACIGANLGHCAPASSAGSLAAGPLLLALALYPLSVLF

[9] = decrease of insulin promoter-GFP reporter – imaging, high-content screening, mouse beta cells (AID 1628); format: functional; settings: MIN6
[10] = MIN6 cell viability loss – mouse insulinoma, cytotoxicity control, dose response (AID 2122); format: functional;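 also: confirmatory high-throughput counterscreen run to flag cytotoxic compounds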
[11] = NIH-3T3 fibroblast cytotoxicity, dose response, cytotoxicity control, cell-based, fluorescence, Alamar Blue, secondary assay (AID 2327); format: functional;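 also: NIH-3T3 mouse fibroblasts cultured with fluconazole at 8 µg/mL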
[12] = cells; format: functional, cell-based
[13] = fluconazole-exposed Candida albicans growth modulators – fluorescence, retest, confirmation (AID 2467); format: functional, cell-based
[14] = Trypanosoma cruzi growth suppression in host cells – NIH3T3 host cells, beta-gal luminescence, confirmation (AID 2044); format: functional, cell-based;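 also: intracellular parasites grown in NIH/3T3 mouse fibroblasts as host cells; luminescent beta-galactosidase reporter signal from transgenic T. cruzi replicating inside host cells; inhibitors lower the luminescence signal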
[15] = cells; format: functional, cell-based; remark: listed apart in the source
[16] = target: T3, Serine/threonine-protein phosphatase (Candida dubliniensis (strain CD36 / CBS 7987 / NCPF 3949 / NRRLY-17841) (Yeast), UniProt B9W6M3); test: blockers of CaCl2-induced CDRE-lacZ signaling – S. cerevisiae, luminescence, secondary, dose response (AID 2388); format: functional, cell-based;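 also: yeast reporter cells carrying a calcineurin-responsive lacZ construct stimulated with calcium chloride; luminescent beta-galactosidase reporter signal in whole cells rather than isolated phosphatase activity; potency for inhibition where a drop in reporter signal means calcineurin blockade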
T3 sequence (B9W6M3 whole entry): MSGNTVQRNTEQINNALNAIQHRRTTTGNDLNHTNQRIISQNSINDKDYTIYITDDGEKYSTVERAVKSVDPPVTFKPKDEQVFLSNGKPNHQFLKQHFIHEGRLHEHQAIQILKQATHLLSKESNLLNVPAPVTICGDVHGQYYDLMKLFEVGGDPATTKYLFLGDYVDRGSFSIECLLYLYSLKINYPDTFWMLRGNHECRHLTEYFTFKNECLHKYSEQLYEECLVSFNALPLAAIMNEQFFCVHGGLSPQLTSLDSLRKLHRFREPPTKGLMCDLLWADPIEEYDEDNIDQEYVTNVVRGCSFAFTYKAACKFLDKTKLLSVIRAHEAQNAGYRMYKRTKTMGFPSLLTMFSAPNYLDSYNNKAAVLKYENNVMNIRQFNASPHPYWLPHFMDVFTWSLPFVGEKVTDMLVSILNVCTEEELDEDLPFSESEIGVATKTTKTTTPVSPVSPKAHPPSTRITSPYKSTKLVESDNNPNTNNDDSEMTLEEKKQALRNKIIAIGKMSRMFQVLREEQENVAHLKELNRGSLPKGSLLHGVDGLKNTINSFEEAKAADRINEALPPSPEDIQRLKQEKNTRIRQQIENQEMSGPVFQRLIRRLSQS

[17] = NIH3T3 cell viability loss – ATP luminescence, mouse fibroblasts, counter-screen, dose response (AID 2010); format: functional, cell-based;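 also: cells exposed to compound for about 90 hours before reading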
[18] = target: Exodeoxyribonuclease V (Escherichia coli (strain K12), UniProt P04993+P07648+P08394); test: RecBCD inhibition via phage-restricted bacterial growth – absorbance, V66 E. coli, mutant T4 phage, counter-screen for AddAB inhibitor project, dose response (AID 492957); format: functional, cell-based, Escherichia coli str. K-12 substr. MG1655
[19] = Counterscreen for AddAB inhibitors: absorbance-based bacterial cell-based high throughput dose response assay for inhibitors of bacterial viability. [Related pubchem assays (depositor defined):AID435030, AID449728, AID449731, AID488942, AID488955, AID488956]; format: functional
[20] = target: Heat shock protein HSP 90-alpha (Homo sapiens, UniProt P07900); format: functional, organism-based
[21] = test system: INS1; test: INS-1E survival protection against cytokine death – cell-based, luminescence, retest, dose response (AID 449756); format: functional; settings: Rattus norvegicus;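 also: cell death triggered by IL-1 beta plus TNF-alpha plus IFN-gamma mixture; protective hits raise ATP signal compared with cytokine alone wells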
[22] = test system: Vero; test: cells; format: functional; settings: Chlorocebus sabaeus
[23] = target: ATP-dependent molecular chaperone HSP82 (Candida albicans (strain WO-1) (Yeast), UniProt C4YTQ8); test: steroid-induced GRE reporter decrease in yeast – S. cerevisiae, luminescence, Hsp90 inhibitor project, dose response (AID 2400); format: functional, cell-based;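 also: beta-galactosidase luminescence from glucocorticoid response element reporter as proxy for Hsp90 function; inhibitor potency where signal loss means Hsp90 inhibition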
Sequence of ATP-dependent molecular chaperone HSP82 (C4YTQ8 whole entry): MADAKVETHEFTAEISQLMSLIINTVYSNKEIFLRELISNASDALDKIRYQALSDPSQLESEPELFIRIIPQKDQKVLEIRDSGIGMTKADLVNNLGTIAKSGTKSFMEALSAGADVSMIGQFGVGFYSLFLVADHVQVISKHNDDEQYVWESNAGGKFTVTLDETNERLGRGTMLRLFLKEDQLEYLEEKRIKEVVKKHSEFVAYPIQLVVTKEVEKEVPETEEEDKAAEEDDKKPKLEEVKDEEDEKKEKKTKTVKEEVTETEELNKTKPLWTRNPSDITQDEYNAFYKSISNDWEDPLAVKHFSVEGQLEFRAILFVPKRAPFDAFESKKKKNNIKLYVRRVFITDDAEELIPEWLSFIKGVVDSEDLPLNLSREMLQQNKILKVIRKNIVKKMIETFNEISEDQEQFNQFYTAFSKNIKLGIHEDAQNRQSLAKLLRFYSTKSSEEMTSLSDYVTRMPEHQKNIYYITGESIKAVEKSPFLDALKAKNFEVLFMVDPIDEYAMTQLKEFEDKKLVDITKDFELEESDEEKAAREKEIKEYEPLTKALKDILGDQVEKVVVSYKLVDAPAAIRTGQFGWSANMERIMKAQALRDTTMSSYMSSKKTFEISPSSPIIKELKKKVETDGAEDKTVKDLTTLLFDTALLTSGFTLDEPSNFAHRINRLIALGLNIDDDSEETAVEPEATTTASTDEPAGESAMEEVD

Sequence of Phosphoethanolamine/phosphocholine phosphatase (Q8TCT1 whole entry): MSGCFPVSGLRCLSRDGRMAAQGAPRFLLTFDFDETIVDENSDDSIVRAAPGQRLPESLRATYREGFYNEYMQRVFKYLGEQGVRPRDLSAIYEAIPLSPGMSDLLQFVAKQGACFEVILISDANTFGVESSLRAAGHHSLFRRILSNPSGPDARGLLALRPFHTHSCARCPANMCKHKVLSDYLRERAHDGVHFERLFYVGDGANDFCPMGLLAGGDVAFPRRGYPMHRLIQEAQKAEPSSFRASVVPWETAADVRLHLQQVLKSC
Sequence of Phosphomannomutase 2 (O15305 whole entry): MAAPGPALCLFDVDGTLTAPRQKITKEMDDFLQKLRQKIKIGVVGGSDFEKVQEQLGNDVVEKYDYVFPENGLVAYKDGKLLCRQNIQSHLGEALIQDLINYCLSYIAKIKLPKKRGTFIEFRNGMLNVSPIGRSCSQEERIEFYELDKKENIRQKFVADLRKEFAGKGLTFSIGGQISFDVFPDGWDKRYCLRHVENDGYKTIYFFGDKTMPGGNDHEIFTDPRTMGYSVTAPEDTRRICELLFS
Sequence of Exodeoxyribonuclease V (P04993 whole entry): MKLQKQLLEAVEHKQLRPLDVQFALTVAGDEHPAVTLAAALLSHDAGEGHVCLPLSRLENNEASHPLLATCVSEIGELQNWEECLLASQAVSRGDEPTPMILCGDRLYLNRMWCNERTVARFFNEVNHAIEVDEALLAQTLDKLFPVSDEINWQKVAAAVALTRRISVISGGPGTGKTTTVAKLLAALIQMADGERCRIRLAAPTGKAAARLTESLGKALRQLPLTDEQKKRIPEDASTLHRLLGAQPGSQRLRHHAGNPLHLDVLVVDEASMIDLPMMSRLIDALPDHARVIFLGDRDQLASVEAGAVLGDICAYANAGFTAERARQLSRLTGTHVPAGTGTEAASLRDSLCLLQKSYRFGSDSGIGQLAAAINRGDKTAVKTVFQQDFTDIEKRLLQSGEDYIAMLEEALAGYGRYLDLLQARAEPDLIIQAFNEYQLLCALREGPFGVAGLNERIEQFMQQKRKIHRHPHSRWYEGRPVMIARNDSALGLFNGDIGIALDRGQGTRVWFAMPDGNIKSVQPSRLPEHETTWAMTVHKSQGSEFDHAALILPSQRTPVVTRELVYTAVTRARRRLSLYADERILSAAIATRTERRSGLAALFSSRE
Sequence of Exodeoxyribonuclease V (P07648 whole entry): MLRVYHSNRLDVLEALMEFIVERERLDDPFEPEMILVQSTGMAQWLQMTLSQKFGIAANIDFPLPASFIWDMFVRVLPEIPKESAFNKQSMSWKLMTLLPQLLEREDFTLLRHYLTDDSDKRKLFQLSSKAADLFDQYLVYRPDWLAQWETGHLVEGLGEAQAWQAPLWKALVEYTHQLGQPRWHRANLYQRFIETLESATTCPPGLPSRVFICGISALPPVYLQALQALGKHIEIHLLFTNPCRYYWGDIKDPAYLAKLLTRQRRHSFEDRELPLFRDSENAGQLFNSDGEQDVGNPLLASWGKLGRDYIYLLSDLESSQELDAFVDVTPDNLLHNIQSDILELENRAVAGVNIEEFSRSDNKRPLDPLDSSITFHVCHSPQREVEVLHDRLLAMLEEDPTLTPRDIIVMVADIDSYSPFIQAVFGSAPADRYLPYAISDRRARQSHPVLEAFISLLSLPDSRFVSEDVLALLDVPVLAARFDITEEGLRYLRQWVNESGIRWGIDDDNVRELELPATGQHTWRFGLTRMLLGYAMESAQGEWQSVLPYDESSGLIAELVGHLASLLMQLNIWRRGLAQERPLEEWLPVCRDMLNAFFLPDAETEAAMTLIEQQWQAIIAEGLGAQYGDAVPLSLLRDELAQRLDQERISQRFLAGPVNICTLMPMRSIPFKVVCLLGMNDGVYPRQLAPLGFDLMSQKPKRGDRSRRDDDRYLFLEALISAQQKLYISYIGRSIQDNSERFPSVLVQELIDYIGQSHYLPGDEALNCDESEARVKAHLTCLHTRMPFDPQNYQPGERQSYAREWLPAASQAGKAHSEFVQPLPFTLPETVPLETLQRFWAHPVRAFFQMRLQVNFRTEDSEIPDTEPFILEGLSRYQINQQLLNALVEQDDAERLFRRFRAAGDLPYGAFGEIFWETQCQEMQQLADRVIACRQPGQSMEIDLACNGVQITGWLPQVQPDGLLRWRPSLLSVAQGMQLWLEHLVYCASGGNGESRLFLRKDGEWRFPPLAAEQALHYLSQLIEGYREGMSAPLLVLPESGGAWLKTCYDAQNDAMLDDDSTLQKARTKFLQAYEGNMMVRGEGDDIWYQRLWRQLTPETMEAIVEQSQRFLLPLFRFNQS
Sequence of Exodeoxyribonuclease V (P08394 whole entry): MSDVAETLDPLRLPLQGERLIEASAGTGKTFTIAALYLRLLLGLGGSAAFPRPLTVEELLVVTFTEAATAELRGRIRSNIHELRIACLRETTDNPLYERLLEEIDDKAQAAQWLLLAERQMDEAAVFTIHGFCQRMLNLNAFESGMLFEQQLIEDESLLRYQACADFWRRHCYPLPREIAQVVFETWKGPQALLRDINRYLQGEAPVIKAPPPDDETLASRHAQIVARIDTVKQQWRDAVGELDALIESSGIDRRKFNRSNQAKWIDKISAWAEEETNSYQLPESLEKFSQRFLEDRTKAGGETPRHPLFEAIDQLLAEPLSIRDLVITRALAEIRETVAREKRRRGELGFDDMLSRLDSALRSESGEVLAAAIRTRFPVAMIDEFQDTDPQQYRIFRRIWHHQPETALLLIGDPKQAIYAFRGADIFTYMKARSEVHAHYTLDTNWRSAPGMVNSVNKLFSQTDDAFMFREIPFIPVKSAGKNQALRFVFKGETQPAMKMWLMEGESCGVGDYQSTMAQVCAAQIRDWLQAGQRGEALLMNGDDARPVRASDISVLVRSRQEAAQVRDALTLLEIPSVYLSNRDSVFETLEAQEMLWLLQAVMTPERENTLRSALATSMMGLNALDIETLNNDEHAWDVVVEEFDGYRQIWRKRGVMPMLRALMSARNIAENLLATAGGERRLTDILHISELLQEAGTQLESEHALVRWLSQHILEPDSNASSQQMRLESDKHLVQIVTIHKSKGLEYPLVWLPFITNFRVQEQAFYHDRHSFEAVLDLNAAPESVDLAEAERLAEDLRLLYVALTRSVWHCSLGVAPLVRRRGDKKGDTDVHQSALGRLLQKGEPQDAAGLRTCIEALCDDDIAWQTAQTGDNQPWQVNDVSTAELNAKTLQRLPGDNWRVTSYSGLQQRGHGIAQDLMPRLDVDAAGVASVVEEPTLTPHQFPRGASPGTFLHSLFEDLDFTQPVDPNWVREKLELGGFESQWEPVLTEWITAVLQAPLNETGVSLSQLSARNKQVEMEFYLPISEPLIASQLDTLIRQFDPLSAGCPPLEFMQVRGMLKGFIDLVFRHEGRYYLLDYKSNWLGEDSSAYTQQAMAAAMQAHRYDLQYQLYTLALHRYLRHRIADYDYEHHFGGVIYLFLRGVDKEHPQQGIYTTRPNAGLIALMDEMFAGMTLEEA

For `CCCCCOc1ccc(/C=C/c2c([N+](=O)[O-])c(=O)n(C)c(=O)n2C)cc1`, the EC50 [1] was > 20 µM (inactive), the IC50 [2] was > 20 µM (inactive) and the IC50 [3] was > 20 µM (inactive). For the same compound, the IC50 [4] was 8.94 µM (active).

With `CCN(CC)S(=O)(=O)c1cccc(-n2sc3ccccc3c2=O)c1` the IC50 [5] was 61.9 µM (active), the IC50 [6] was > 100 µM (inactive) and the IC50 [7] was 0.555 µM (active). For the same compound, the IC50 [8] was > 100 µM (inactive).

In the case of `CC(=O)Nc1ccc(S(=O)(=O)N(C)CCOCc2ccccc2)cc1`, the IC50 [9] is reported as 1.82 µM (active) and the IC50 [10] is reported as 1.48 µM (active).

With `CCC(=O)NC(c1cccs1)c1cc(Cl)c2cccnc2c1O` (stereo not drawn) the EC50 [11] was 34.7 µM (active), the EC50 [12] was 61.3 µM (active) and the EC50 [13] was 0.48 µM (active). For the same compound, the EC50 [14] was 0.692 µM (active), the EC50 [15] was > 350 µM (not active) and the EC50 [16] was > 180 µM (inactive). The EC50 [17] was 1.13 µM (active), the IC50 [18] was > 119 µM (inactive) and the IC50 [19] was > 119 µM (inactive). For the same compound, the AC50 [20] was 3.61 µM (active), the AC50 [21] was 1.28 µM (active) and the CC50 [22] was 3.84 µM (active). For the same compound, the EC50 [23] was > 150 µM (inactive).
